According to patent US7417156B2, “Orally active, antimalarial, anticancer, artemisinin-derived trioxane dimers” (Johns Hopkins University, priority 2002, dated 2008):
Read-outs that look alike come from different tables or passages of the source.

Legend:
[1] = system: P. berghei NY malaria parasite; assay: Antimalarial efficacies in vivo in mice
Excerpt: Neither overt toxicity nor behavioral modification was observed due to drug administration in any of these mouse experiments.

malaria parasite = assay: Efficacy Study Blood Schizontocidal Activity; assay type: in vivo; set-up: ED90: unit not given here
NCI-H322M = assay type: cell-based
COLO 205 = assay: NCI 60 cell line panel screen (SRB); assay type: cell-based, human; conditions: for Log10TGI50: TGI: PG=0
HT29 = assay: NCI 60 cell line panel screen (SRB); assay type: cell-based, human; conditions: for Log10TGI50 / Log10LC50: HT29 (Colon Cancer); for Log10TGI50: TGI: PG=0; for Log10GI50: Colon Cancer, HT29; for Log10LC50: LC50: PG=−50
SK-MEL-28 = assay: NCI 60 cell line panel screen (SRB); assay type: cell-based, human; conditions: for Log10GI50: Melanoma, SK-MEL-28; for Log10TGI50 / Log10LC50: SK-MEL-28 (Melanoma); for Log10TGI50: TGI: PG=0; for Log10LC50: LC50: PG=−50
OVCAR-5 = assay: NCI 60 cell line panel screen (SRB); assay type: cell-based, human; conditions: for Log10TGI50 / Log10LC50: OVCAR-5 (Ovarian Cancer); for Log10TGI50: TGI: PG=0; for Log10LC50: LC50: PG=−50; for Log10GI50: Ovarian Cancer, OVCAR-5
OVCAR-8 = assay: NCI 60 cell line panel screen (SRB); assay type: cell-based, human; conditions: for Log10TGI50 / Log10LC50: OVCAR-8 (Ovarian Cancer); for Log10TGI50: TGI: PG=0; for Log10GI50: Ovarian Cancer, OVCAR-8; for Log10LC50: LC50: PG=−50
786-0 = assay: NCI 60 cell line panel screen (SRB); assay type: cell-based, human; conditions: for Log10TGI50 / Log10LC50: 786-0 (Renal Cancer); for Log10TGI50: TGI: PG=0; for Log10GI50: Renal Cancer, 786-0; for Log10LC50: LC50: PG=−50
TK-10 = assay: NCI 60 cell line panel screen (SRB); assay type: cell-based, human; conditions: for Log10GI50: Renal Cancer, TK-10; for Log10TGI50 / Log10LC50: TK-10 (Renal Cancer); for Log10TGI50: TGI: PG=0; for Log10LC50: LC50: PG=−50
UO-31 = assay: NCI 60 cell line panel screen (SRB); assay type: cell-based, human; conditions: for Log10GI50: Renal Cancer, UO-31; for Log10TGI50 / Log10LC50: UO-31 (Renal Cancer); for Log10TGI50: TGI: PG=0; for Log10LC50: LC50: PG=−50
MDA-MB-435 = assay: NCI 60 cell line panel screen (SRB); assay type: cell-based, human; conditions: for Log10GI50: Breast Cancer, MDA-MB-435; for Log10TGI50 / Log10LC50: MDA-MB-435 (Breast Cancer); for Log10TGI50: TGI: PG=0; for Log10LC50: LC50: PG=−50
T-47D = assay: NCI 60 cell line panel screen (SRB); assay type: cell-based, human
RPMI-8226 = assay: NCI 60 cell line panel screen (SRB); assay type: cell-based, human; conditions: for Log10GI50: Leukemia, RPMI-8226; for Log10LC50 / Log10TGI50: RPMI-8226 (Leukemia); for Log10LC50: LC50: PG=−50; for Log10TGI50: TGI: PG=0
SF-295 = assay: NCI 60 cell line panel screen (SRB); assay type: cell-based, human
SNB-75 = assay: NCI 60 cell line panel screen (SRB); assay type: cell-based, human; conditions: SNB-75 (CNS Cancer); for Log10LC50: LC50: PG=−50; for Log10TGI50: TGI: PG=0
U251 = assay: NCI 60 cell line panel screen (SRB); assay type: cell-based, human; conditions: for Log10LC50 / Log10TGI50: U251 (CNS Cancer); for Log10LC50: LC50: PG=−50; for Log10TGI50: TGI: PG=0
NCI-H226 = assay: NCI 60 cell line panel screen (SRB); assay type: cell-based, human
[2] = NCI-H322M (Non-Small Cell Lung Cancer), TGI: PG=0
[3] = Non-Small Cell Lung Cancer, NCI-H322M

## CC1CCC2C(C)C(CC(COCC(=O)O)CC3OC4OC5(C)CCC6C(C)CCC(C3C)C46OO5)OC3OC4(C)CCC1C32OO4 (centres unmarked) [Compound 12b, bis-trioxane O-acetic acid]
[1]; route IV
  ED50: 1.0 mg/kg × 4
  ED90: 3.5 mg/kg × 4
  % Parasite Supression at 10 mg/kg: 95.7%
[1]; route PO
  ED50: 6.5 mg/kg × 4
  ED90: 17.0 mg/kg × 4
  % Parasite Supression at 10 mg/kg: 46.5%
Malaria parasite; Route: IV
  ED50: 5.2
  ED90: 10.0
Malaria parasite; Route: PO
  ED50: 6.0
  ED90: 19.0
NCI-H322M; [2]
  Log10TGI50: >−4.30 log10M
NCI-H322M; [3]
  Log10GI50: −5.03
COLO 205; COLO 205 (Colon Cancer)
  Log10TGI50: −5.28 log10M
HT29
  Log10TGI50: >−4.30 log10M
SK-MEL-28
  Log10GI50: −4.92
  Log10TGI50: >−4.30 log10M
OVCAR-5
  Log10TGI50: −6.39 log10M
OVCAR-8
  Log10TGI50: >−4.30 log10M
  Log10GI50: >−4.30
786-0
  Log10TGI50: >−4.30 log10M
  Log10GI50: −6.59
TK-10
  Log10GI50: −7.22
  Log10TGI50: −5.22 log10M
UO-31
  Log10GI50: −5.84
  Log10TGI50: >−4.30 log10M
MDA-MB-435
  Log10GI50: −6.97
  Log10TGI50: >−4.30 log10M
T-47D; T-47D (Breast Cancer), TGI: PG=0
  Log10TGI50: >−4.30 log10M

## C[C@@H]1CC[C@H]2[C@@H](C)C(CC(O)(COC(=O)CCC(=O)O)CC3OC4O[C@]5(C)CC[C@H]6[C@H](C)CC[C@@H]([C@H]3C)C46OO5)OC3O[C@]4(C)CCC1C32OO4 (some centres unmarked) [Compound 9, tertiary alcohol primary succinate ester]
[1]; Plasmodium berghei, route IV, read-out: ED50
  ED50: 2.4 mg/kg
[1]; Plasmodium berghei, route PO, read-out: ED50
  ED50: 4.8 mg/kg
[1]; route IV
  ED90: 11.0 mg/kg × 4
  % Parasite Supression at 10 mg/kg: 83.4%
[1]; route PO
  ED90: 34.0 mg/kg × 4
  % Parasite Supression at 10 mg/kg: 55.4%
RPMI-8226
  Log10GI50: <−8.30
  Log10LC50: >−4.30 log10M
  Log10TGI50: >−4.30 log10M
NCI-H322M; [2]
  Log10TGI50: >−4.30 log10M
NCI-H322M; [3]
  Log10GI50: −5.07
HT29
  Log10GI50: <−8.30
  Log10LC50: >−4.30 log10M
SF-295; CNS Cancer, SF-295
  Log10GI50: <−8.30
SF-295; SF-295 (CNS Cancer), LC50: PG=−50
  Log10LC50: −4.60 log10M
SF-295; SF-295 (CNS Cancer), TGI: PG=0
  Log10TGI50: <−8.30 log10M
SNB-75
  Log10LC50: >−4.30 log10M
  Log10TGI50: >−4.30 log10M
U251
  Log10LC50: >−4.30 log10M
  Log10TGI50: −4.75 log10M
SK-MEL-28
  Log10GI50: <−8.30
  Log10LC50: >−4.30 log10M
  Log10TGI50: >−4.30 log10M
OVCAR-5
  Log10LC50: >−4.30 log10M
  Log10GI50: <−8.30
OVCAR-8
  Log10LC50: >−4.30 log10M
  Log10TGI50: >−4.30 log10M
  Log10GI50: −5.12
786-0
  Log10LC50: >−4.30 log10M
  Log10GI50: <−8.30
TK-10
  Log10GI50: <−8.30
  Log10LC50: >−4.30 log10M
  Log10TGI50: −4.60 log10M
UO-31
  Log10GI50: −5.05
  Log10LC50: >−4.30 log10M
  Log10TGI50: >−4.30 log10M
MDA-MB-435
  Log10GI50: <−8.30
  Log10LC50: >−4.30 log10M
  Log10TGI50: >−4.30 log10M

## CC1CCC2C(C)C(CC(O)(CC3OC4OC5(C)CCC6C(C)CCC(C3C)C46OO5)CS(=O)(=O)c3ccc(C(=O)O)cc3)OC3OC4(C)CCC1C32OO4 (stereo not drawn) [Compound 10c, bis-trioxane β-hydroxysulfone benzoic acid]
[1]; route IV
  ED50: 2.7 mg/kg × 4
  ED90: 10.0 mg/kg × 4
  % Parasite Supression at 10 mg/kg: 83.4%
[1]; route PO
  ED50: 7.5 mg/kg × 4
  ED90: 35.0 mg/kg × 4
  % Parasite Supression at 10 mg/kg: 46.1%
RPMI-8226
  Log10GI50: <−8.30
  Log10LC50: >−4.30 log10M
  Log10TGI50: −5.03 log10M
NCI-H226; NCI-H226 (Non-Small Cell Lung Cancer), LC50: PG=−50
  Log10LC50: −4.82 log10M
NCI-H226; NCI-H226 (Non-Small Cell Lung Cancer), TGI: PG=0
  Log10TGI50: <−8.30 log10M
NCI-H226; Non-Small Cell Lung Cancer, NCI-H226
  Log10GI50: <−8.30
NCI-H322M
  Log10GI50: −6.03
  Log10TGI50: −4.98 log10M
NCI-H322M; NCI-H322M (Non-Small Cell Lung Cancer), LC50: PG=−50
  Log10LC50: −4.57 log10M
COLO 205; COLO 205 (Colon Cancer), LC50: PG=−50
  Log10LC50: −5.55 log10M
COLO 205; COLO 205 (Colon Cancer)
  Log10TGI50: <−8.30 log10M
COLO 205; Colon Cancer, COLO 205
  Log10GI50: <−8.30
HT29
  Log10GI50: <−8.30
  Log10LC50: >−4.30 log10M
  Log10TGI50: >−4.30 log10M
SNB-75
  Log10LC50: −4.32 log10M
  Log10TGI50: −4.80 log10M
U251; CNS Cancer, U251
  Log10GI50: <−8.30
U251
  Log10LC50: −4.72 log10M
  Log10TGI50: −5.22 log10M
SK-MEL-28
  Log10GI50: −5.45
  Log10LC50: >−4.30 log10M
  Log10TGI50: −4.63 log10M
OVCAR-5
  Log10LC50: −4.88 log10M
  Log10TGI50: <−8.30 log10M
  Log10GI50: <−8.30
OVCAR-8
  Log10LC50: >−4.30 log10M
  Log10TGI50: −4.48 log10M
  Log10GI50: −5.25
786-0
  Log10LC50: −4.64 log10M
  Log10TGI50: −5.08 log10M
  Log10GI50: <−8.30
TK-10
  Log10GI50: <−8.30
  Log10LC50: −4.62 log10M
  Log10TGI50: −5.40 log10M
UO-31
  Log10GI50: −5.91
  Log10LC50: >−4.30 log10M
  Log10TGI50: >−4.30 log10M
MDA-MB-435
  Log10GI50: <−8.30
  Log10LC50: −4.60 log10M
  Log10TGI50: −5.17 log10M
T-47D; Breast Cancer, T-47D
  Log10GI50: <−8.30
T-47D; T-47D (Breast Cancer), LC50: PG=−50
  Log10LC50: >−4.30 log10M
